The source of these data is patent US20240293405A1, “(1H-PYRROLO[2,3-B]PYRIDIN-1-YL)PYRIMIDIN-2-YL-AMINO-PHENYL-ACRYLAMIDE INHIBITORS OF EGFR FOR USE IN THE TREATMENT OF BRAIN TUMORS” (Dana-Farber Cancer Institute, Inc., priority 2021, published 2024).

Where “and” joins values, the source holds several entries; their conditions need not be identical. Equal entries are not always repeated. Where two headings read alike, the source gives them in different places.

One series has as its system P-gp, Bcrp. To be noted: previously published report; cited from earlier work.
The next series relates to Glioblastoma. The settings on record: previously published report, cited from earlier work.
The subject of the next series is BT112 cells. As to the kind of experiment: Cell viability, patient-derived GBM line BT112. To be noted: Homo sapiens, 72 h.
Another series has as its system BT179 cells. As to the kind of experiment: Cell viability, patient-derived GBM line BT179. The settings on record: Homo sapiens, 72 h.
For another series, the system named is BT333 cells. As to the kind of experiment: Cell viability, patient-derived GBM line BT333. To be noted: Homo sapiens, 72 h.
Series [1] is described as follows: Brain and plasma exposure after single oral dose. The series is classed as in vivo, Sprague Dawley rats. The settings on record: gefitinib 50 mg/kg PO. The text has this: Genfitinib concentrations were quantitated by LC-MS/MS from brain and plasma from Group 1 animals.
Series [2] in a line: Brain and plasma exposure after 5 hour intravenous infusion. The series is classed as in vivo, Sprague Dawley rats. The settings on record: 3 mg/kg IV infusion over 5 h. As for the experimental part:
A single IV infustion for 5 hours was administered to each animal, which were then twice observed clinically (30 minutes to 1 hour post-posing and at the end of the study (TTerminal). Blood samples were collected at 5 time points from each animal over the 5 hour infusion period (5 minutes, 1 hour, 2, hours, 3 hours and TTerminal) and processed to plasma. Brains were collected at Tterminal (blotted, weighed, and snap frozen) and brain exposure was compared. […]

The nature of series [3]: Brain and plasma exposure after single oral dose. The series is classed as in vivo, Sprague Dawley rats. To be noted: Sprague Dawley, rat, 50 mg/kg, gefitinib 50 mg/kg PO, 7 hr; for concentration at 7 h: oral.

Method for BT112 cells: (§1) Primary human glioblastoma lines BT112, BT179 and BT333 were maintained in NeuroCult proliferation medium (human) (StemCell Technologies) with 20 ng/ml EGF, 10 ng/ml FGF and 0.0002% Heparin.
(§2) Cells were seeded in 96-well plates at a density of 1,000 cells per well and treated with two-fold serial dilutions of compounds with a starting concentration of 20 μM. Cell viability was assessed after three days of treatment by CellTiter-Glo (Promega). Curve fitting analysis and IC50 value determination were performed using GraphPad Prism 8.
Method for BT179 cells: as §1, §2
Method for BT333 cells: as §1, §2

Regarding `CN(C)C/C=C/C(=O)Nc1cc2c(Nc3ccc(F)c(Cl)c3)ncnc2cc1O[C@H]1CCOC1` [Afatinib], the “Efflux Liability” value in the series on P-gp, Bcrp is recorded as “P-gp, Bcrp”.
On to `C#Cc1cccc(Nc2ncnc3cc(OCCOC)c(OCCOC)cc23)c1` [Erlotinib], for which the “Efflux Liability” value in the series with P-gp, Bcrp is on record as “P-gp, Bcrp”. For the same compound, the “Glioblastoma (treatment outcome)” value is listed as “Failed” in the series on Glioblastoma and “failed” with Glioblastoma (listed as erlotinib). Moreover, the figures for the half-maximal inhibitory concentration (IC50) with BT112 cells, in the series with BT179 cells and in the series on BT333 cells were 18.5 µM, 11.7 µM and 52.3 µM, respectively.
`COc1cc2ncnc(Nc3ccc(F)c(Cl)c3)c2cc1OCCCN1CCOCC1` [Gefitinib, reference compound]: in series [1] (Sprague Dawley, rat, plasma, oral, 50 mg/kg, 3 hr, mean n=3), the concentration at 3 h came out at 1950 ng/mL. The “Plasma Concentration” value in series [1] (3 hr, individual animal) was 2660 ng/mL and 1940 ng/mL and 1260 ng/mL; in series [1] (7 hr, individual animal), 2240 ng/mL and 4700 ng/mL and 1030 ng/mL. Also, the “Brain Tissue Concentration” value in series [1] (7 hr, individual animal) is 666 ng/g and 562 ng/g and 561 ng/g; in series [2] (5 h, individual animal, Compound 2 as metabolite in Compound 1-dosed rats) it was 153 ng/g and 129 ng/g and 151 ng/g and 149 ng/g and 189 ng/g and 155 ng/g. The concentration at 5 h stood at 155 ng/g in series [2] (male, Sprague Dawley, rat, brain, intravenous, 3 mg/kg, 5 h, individual animal, Compound 2 as metabolite in Compound 1-dosed rats, read-out: Brain Tissue Concentration); 154 ng/g in series [2] (male, Sprague Dawley, rat, brain, intravenous, 3 mg/kg, 5 h, mean n=6, Compound 2 as metabolite, read-out: Brain Tissue Concentration); 286 ng/mL in series [2] (male, Sprague Dawley, rat, plasma, intravenous, 3 mg/kg, 5 h, individual animal, Compound 2 as metabolite in Compound 1-dosed rats, read-out: Plasma Concentration). The concentration at 0.083 h in series [2] (male, Sprague Dawley, rat, plasma, intravenous, 3 mg/kg, 0.083 h, individual animal, Compound 2 as metabolite in Compound 1-dosed rats) came to 55.6 ng/mL. Moreover, the concentration at 1 h in series [2] (male, Sprague Dawley, rat, plasma, intravenous, 3 mg/kg, 1 h, individual animal, Compound 2 as metabolite in Compound 1-dosed rats) turned out to be 115 ng/mL. Further, in series [2] (male, Sprague Dawley, rat, plasma, intravenous, 3 mg/kg, 2 h, individual animal, Compound 2 as metabolite in Compound 1-dosed rats), the concentration at 2 h stood at 161 ng/mL. The concentration at 7 h in series [3] (brain, individual animal, read-out: Brain Tissue Concentration) amounted to 561 ng/g; in series [3] (brain, mean n=3, read-out: Brain Tissue Concentration), 596 ng/g; in series [3] (plasma, mean n=3, read-out: Plasma Concentration) it was 2660 ng/mL. Further, the Kp at 7 h in series [3] (brain, po, mean n=3, read-out: Brain/Plasma (ratios)) is 0.22. Further, in the series on P-gp, Bcrp, the “Efflux Liability” value is on record as “P-gp, Bcrp”. The “Glioblastoma (treatment outcome)” value is on record as “Failed” in the series on Glioblastoma and “failed” in the series on Glioblastoma (listed as gefitinib).
Take `CS(=O)(=O)CCNCc1ccc(-c2ccc3ncnc(Nc4ccc(OCc5cccc(F)c5)c(Cl)c4)c3c2)o1` [Lapatinib]: the IC50 was determined as 5.22 µM in the series with BT112 cells, 2.32 µM in the series with BT179 cells and 7.91 µM with BT333 cells.
With `COc1cc2ncnc(Nc3ccc(F)c(Cl)c3)c2cc1NC(=O)/C=C/CN1CCCCC1` [Vizimpro], the “Glioblastoma (treatment outcome)” value with Glioblastoma is reported as “Failed”; with Glioblastoma (listed as visimpro) it was “failed”.

One may read the IC50 as the concentration that gives 50% inhibition. Higher therefore signals a need for much substance.
